This note sets out measurements from patent US20260150798A1, “METHODS AND COMPOSITIONS FOR IMPROVED PLANT REGENERATION FROM MICROSPORE-DERIVED EMBRYOS” (Monsanto Technology LLC, priority 2022, published 2026).

This experiment deals with microspore-derived embryos from 10 proprietary canola lines. Briefly: Culture-free maturation and regeneration of microspore-derived embryos in soil, canola. The format is in vivo. The settings on record: 5 mg/L added to MDE Maturation Medium, about 1 to about 24 hours before transfer to soil. The protocol: The optimal time to dilute the microspore-derived embryos to a concentration of about 200 to about 400 embryos per plate containing 15 mL medium is about 15 days to about 20 days after the beginning microspore culture initiation (days after culture) (DAC). At this stage, the embryos are green, individually distinguishable with the naked eye, and the majority are in the torpedo stage of development. During the dilution step the embryogenesis induction medium (NLN13) is replaced with MDE Maturation Medium. The microspore-derived embryos were diluted by transferring about 200 to about 400 embryos to a new plate containing 15 mL of MDE Maturation Medium. If the original plates have a starting concentration of about 200 embryos per plate or less, then the media of the original plate is replaced with MDE Maturation Medium without embryo dilution. Following dilution and/or media replacement, plates were returned to 100 μmol fluorescent light for a 16 hour photoperiod, 25° C. day and night with an orbital shaker set to 60 RPM, and cultured to about 28 to about 30 DAC to reach a matured cotyledon stage before transferring to a solid regeneration medium. […] Regeneration rate was measured after 28 days of incubation. Microspore-derived embryos from 10 proprietary canola lines were analyzed in a series of protocols to identify optimized conditions for culture-free maturation and regeneration. […]

“Also recorded” adds a separate entry of the source.

With `O=C(O)CCCc1c[nH]c2ccccc12` [IBA, indole-3-butyric acid], the “effect on rooting, plantlet survival and establishment in soil” value was “accelerates rooting and increases plantlet survival and establishment in soil; also recorded: improves rooting”.
